Consider two molecules from US12601734B2, “Methods and uses of enzymatic labeling of ADP-ribose containing molecules” (THE JOHNS HOPKINS UNIVERSITY, priority 2018, dated 2026).

The experiment concerns HaCaT cells. In words: ELTA labeling (32P-dATP, sequencing gel) of PAR isolated from H2O2-treated cells. The following applies: HaCaT cells pre-treated with inhibitor prior to H2O2 induction of PAR (FIG. 6b). The class given is cell-based. As for the experimental part:
FIG. 6A-6B illustrates the detection of ADP-ribose length using ELTA. (a) A sequencing gel of the ELTA labeling reaction of ADP-ribose monomer (lane 1), PAR (lane 2), and of ADP-ribose monomer and polymer isolated from in vitro ADP-ribosylated PARP1 by NAD^+ in the presence of the PARP inhibitor Olaparib (lane 3), by NAD^+ for 10 min in the absence of Olaparib (lane 4) and by NAD^+ for 30 min (lane 5). As a comparison, the ADP-ribose monomer and polymer isolated from in vitro ADP-ribosylated PARP1 by NAD+ with a trace of ^32P-NAD+ in the presence of Olaparib for 30 min (lane 6), by NAD^+ for 10 min in the absence of Olaparib (lane 7) and by NAD^+ for 30 min (lane 8). (b) A sequencing gel of the ELTA labeling reaction of ADP-ribose monomer and polymer isolated from in vitro ADP-ribosylated haPARP (lane 1), from untreated cancer cells (lane 2), from cancer cells with DNA damage (lane 3), from cancer cells with DNA damage and treated with PARP inhibitor (lane 4) and from cancer cells with DNA damage and treated with PARG inhibitor (lane 5).
Next, the inventors tested whether ELTA can be used to examine PAR isolated from cells (FIG. 6b). PAR was retrieved from cells using a solid-phase extraction method that allows for the high recovery of PAR without any bias of different chain length. HaCaT cells were either untreated, H2O2-treated to induce PARylation, pre-treated with PARP inhibitor Olaparib prior to H2O2 induction of PAR, or pre-treated with inhibitor against the PAR-degrading enzyme PARG (PDD 00017273) prior to H2O2 induction of PAR. As a control, the inventors also isolated PAR from in vitro modified Herpetosiphon aurantiacus PARP (haPARP), which usually generates PAR of 2-25 mer (lane 1), using the same solid-phase extraction method. As expected, we observed significant PAR signals in H2O2-treated cell samples (FIG. 6b; lane 3), which is longer from the one isolated from haPARP (lane 1). […] Taken together, ELTA can assess the length of PAR isolated in vitro or from cells.

Turning to `O=C(c1cc(Cc2n[nH]c(=O)c3ccccc23)ccc1F)N1CCN(C(=O)C2CC2)CC1` [Olaparib], the “PAR signal isolated from cells” value is “reduced the signal to background level”.
In the case of PDD 00017273, the “PAR length distribution isolated from cells” value is listed as “stronger signals were observed at a shorter range” and the “PAR signal isolated from cells” value is “enrichment of overall signals”.
